From patent publication US11918693B2, “Ibuprofen and acetaminophen tablet” (GlaxoSmithKline Consumer Healthcare Holdings (US) LLC, priority 2019, dated 2024)

System: pyrexia induced by intravenous reference standard endotoxin (RSE) in healthy males
Type: in vivo, human
Details: for WSTD0-2 h, Treatment difference vs. Placebo / WSTD0-4 h, Treatment difference vs. Placebo / WSTD0-6 h, Treatment difference vs. Placebo / WSTD0-8 h, Treatment difference vs. Placebo / WSTD6-8 h, Treatment difference vs. Placebo / WSTD50-110 min, Treatment difference vs. Placebo / WSTD80-110 min, Treatment difference vs. Placebo / Period post dose in which subjects' temperatures were significantly reduced relative to placebo / Headache due to RSE, subjects / Nausea due to RSE, subjects / Pyrexia, AE considered related to RSE, subjects: APAP 500 mg; for WSTD50-110 min, LSM / WSTD50-110 min, Mean / WSTD80-110 min, LSM / WSTD80-110 min, Mean: post hoc analysis; for WSTD50-110 min, LSM / WSTD50-110 min, Mean / WSTD80-110 min, LSM / WSTD80-110 min, Mean / WSTD0-2 h, Mean (SD) / WSTD0-4 h, Mean (SD) / WSTD0-6 h, Mean (SD) / WSTD6-8 h, Mean (SD) / WSTD0-8 h, Mean (SD): IBU dose 250 mg, APAP dose 500 mg; for Period post dose in which subjects' temperatures were significantly reduced relative to placebo / WSTD0-2 h, Mean (SD) / WSTD0-4 h, Mean (SD) / WSTD0-6 h, Mean (SD) / WSTD6-8 h, Mean (SD) / WSTD0-8 h, Mean (SD): single oral dose; for WSTD0-8 h, Mean (SD): primary efficacy endpoint; for Headache due to RSE, subjects / Nausea due to RSE, subjects / Pyrexia, AE considered related to RSE, subjects: study drug treatment period
Method: This study evaluated the antipyretic efficacy, onset of effect and tolerability of a single dose of FDC IBU/APAP 250 mg/500 mg compared with placebo and each monocomponent at the same dose.
This was a single-center, randomized, double-blind, placebo-controlled, full-factorial study in healthy males aged 18-55 years in whom pyrexia was induced by intravenous administration of a reference standard endotoxin (RSE). After RSE administration and attainment of an oral temperature ≥100.5° F. (38.1° C.), subjects were randomized 3:3:3:1 to receive a single oral dose of FDC IBU/APAP 250 mg/500 mg, APAP 500 mg, IBU 250 mg, or placebo in double-blind fashion. Oral temperature was subsequently measured every 10 minutes for the first 2 hours and then every 30 minutes until 8 hours post dose. Time-weighted sum of temperature differences from baseline to 8 hours (WSTD0-8) after study medication administration was the primary efficacy endpoint. Secondary endpoints included WSTD scores from 0-2, 0-4, 0-6, and 6-8 hours; time to return to “normal” temperature; time to rescue medication use; global drug evaluation. Safety was monitored and assessed via adverse events (AEs).
This was a single-center, randomized, double-blind, placebo-controlled, full-factorial single-dose study in subjects in whom pyrexia was induced by intravenous (IV) administration of a reference standard endotoxin (RSE). In this standardized model, fever was induced by endotoxin (gram-negative bacterial lipopolysaccharide) derived from Escherichia coli O113, which was developed as a national biological reference standard in 1976 by the National Institute of Allergy and Infectious Diseases and the US Food and Drug Administration. The RSE used in this study was supplied by List Biological Laboratories, Inc. (Campbell, CA, USA).
Subject eligibility was determined at a screening visit within 28 days prior to study drug treatment; eligible subjects were assigned sequential subject numbers by the investigator. Subjects were healthy males aged 18-55 years, inclusive, with a normal, stable body temperature at screening and day 0, body mass index of 17.5-37.0 kg/m^2, and total body weight ≥50 kg at screening, demonstrably adequate veins for IV catheter insertion, and who were willing and able to comply with all study procedures. […] Female subjects were not enrolled due to potential teratogenicity concerns associated with the use of the RSE.
Subjects entered the study center on day 0 to confirm eligibility, i.e., afebrile state, defined as a mean oral temperature 97.4° F. to 98.8° F. not varying by more than 0.4° F. on 3 repeated measures over 30 minutes and still meeting inclusion/exclusion criteria. Subjects who remained eligible for the study remained in-house until after completion of all study procedures.
Subjects received prophylactic ondansetron, 8 mg intravenously, approximately 30 minutes prior to administration of the RSE to reduce the likelihood of nausea and vomiting. Prior to RSE administration, changes to prior treatments were recorded; blood pressure and HR were measured; and a 12-lead ECG was obtained. Oral temperatures were recorded, with “normal” for each subject being the temperature recorded immediately prior to RSE administration.
Subject eligibility Subject assessments included physical examination, vital sign measurement, ECG evaluation, and laboratory studies (hematology, serum chemistry, urinalysis). The baseline oral temperature was defined as the temperature reading obtained immediately prior to administration of study medication, after the subject had reached an RSE-induced oral temperature ≥100.5° F. (38.1° C.) that was required for randomization. After randomization and study medication administration, oral temperature was measured using a standardized electronic digital thermometer every 10 minutes for the first 2 hours, and then every 30 minutes until 8 hours post dose. Subjects were assessed for emergence of AEs at each temperature evaluation time point. […]

[1] = first minus second treatment, IBU 250 mg

Row | Compound | WSTD0-2 h, Treatment difference vs. Placebo [1] | WSTD0-4 h, Treatment difference vs. Placebo [1] | WSTD0-6 h, Treatment difference vs. Placebo [1] | WSTD0-8 h, Treatment difference vs. Placebo [1] | WSTD6-8 h, Treatment difference vs. Placebo [1] | WSTD50-110 min, LSM | WSTD50-110 min, Mean | WSTD80-110 min, LSM | WSTD80-110 min, Mean | WSTD50-110 min, Treatment difference vs. Placebo (post hoc, IBU 250 mg) | WSTD80-110 min, Treatment difference vs. Placebo (post hoc, IBU 250 mg) | Period post dose in which subjects' temperatures were significantly reduced relative to placebo (IBU 250 mg) | WSTD0-2 h, Mean (SD) | WSTD0-4 h, Mean (SD) | WSTD0-6 h, Mean (SD) | WSTD6-8 h, Mean (SD) | WSTD0-8 h, Mean (SD) | Headache due to RSE, subjects (IBU 250 mg) | Nausea due to RSE, subjects (IBU 250 mg) | Pyrexia, AE considered related to RSE, subjects (IBU 250 mg) | other results
1 | CC(=O)Nc1ccc(O)cc1 [APAP, N-(4-hydroxyphenyl)acetamide] | 0.60 | 1.42 | 1.92 | 2.35 | 0.53 | 0.135 | 0.19 | 0.192 | 0.23 | 0.406 | 0.253 | 100 to 270 min | 0.21 (1.73) | 3.41 (3.17) | 7.65 (4.60) | 5.84 (2.33) | 12.39 (6.28) | 5.7% | 9.2% | 29.9% | –
2 | CC(C)Cc1ccc(C(C)C(=O)O)cc1 (stereo not shown) [IBU, 2-(4-isobutylphenyl) propionic acid] | 0.51 | 1.26 | 1.83 | 2.23 | 0.51 | 0.103 | −0.02 | 0.190 | 0.13 | 0.374 | 0.251 | 100 to 180 min | −0.19 (1.86) | 2.61 (3.34) | 6.65 (4.79) | 5.49 (2.26) | 11.09 (6.35) | 14.9% | 12.6% | 41.4% | Subjects who took rescue medication (8-hour treatment period, IBU 250 mg): 1 subject; Global Evaluation of study medication as a fever reducer, in words (ANCOVA analysis, 6-point scale, P<0.05): rated their treatment significantly higher than those in the placebo group; WSTD0-2 h, Treatment difference vs. APAP 500 mg [1]: −0.09; WSTD0-4 h, Treatment difference vs. APAP 500 mg [1]: −0.16; WSTD0-6 h, Treatment difference vs. APAP 500 mg [1]: −0.09; WSTD0-8 h, Treatment difference vs. APAP 500 mg [1]: −0.12; WSTD6-8 h, Treatment difference vs. APAP 500 mg [1]: −0.01; WSTD50-110 min, Treatment difference vs. APAP 500 mg (post hoc, IBU 250 mg): −0.032; WSTD80-110 min, Treatment difference vs. APAP 500 mg (post hoc, IBU 250 mg): −0.002
